Reference: US11466044B2 (WAYNE STATE UNIVERSITY, priority 2017, dated 2022)
pIC50: −log10 of the molar value. In brackets after ≈: the same amount, converted by molar mass. Read-outs that look alike come from different tables or passages of the source.

Tests used:
[1] = test system: mitochondrial ribosome (human chimeric); assay type: biochemical; conditions: ribosomes with a human mitochondrial decoding site; read-out: IC50 Mitoch.
From the text: (§1) The antiribosomal activity of these compounds was investigated with cell-free translation assays using both wild type bacterial ribosomes and hybrid ribosomes carrying eukaryotic decoding A sites enabling the prediction of selectivity.

[2] = test system: cytosolic ribosome (human chimeric); assay type: biochemical
From the text: as §1

[3] = test system: P aeruginosa; assay: MIC by broth microdilution, P aeruginosa isolates; assay type: cell-based, Pseudomonas aeruginosa
[4] = test system: M. smegmatis SZ380; assay: MIC by broth microdilution, M. smegmatis
[5] = test system: Enterobacter cloacae AG290; assay: MIC by broth microdilution, Enterobacter cloacae; assay type: cell-based; conditions: strain AG290 Enterobacter cloacae
[6] = test system: rabbit reticulocyte ribosomes; assay: in-vitro translation assay, rabbit reticulocyte ribosomes; assay type: biochemical; conditions: mammalian cytosolic ribosomes (rabbit)
[7] = test system: A1555G mutant mitochondrial ribosome (human chimeric); assay: in-vitro translation assay, human chimeric ribosomes, A1555G mutant mitochondrial decoding site; assay type: biochemical; conditions: human mitochondrial decoding site with A1555G point mutation; read-out: IC50 Mitoch. A1555G
From the text: as §1

[8] = test system: E coli wild type; assay: MIC by broth microdilution, wild type E coli; assay type: cell-based
[9] = test system: M. abscessus; assay: MIC by broth microdilution, M. abscessus; assay type: cell-based
[10] = test system: Klebsiella pneumonia AG215; assay: MIC by broth microdilution, Klebsiella pneumonia; assay type: cell-based; conditions: strain AG215 Klebsiella pneumonia
[11] = test system: MRSA; assay: MIC by broth microdilution, MRSA isolates; assay type: cell-based
[12] = test system: N. gonorrhoeae; assay: Disk diffusion, N. gonorrhoeae; assay type: cell-based; conditions: 25 nmol

What does the source list for `NC[C@@H]1O[C@H](O[C@H]2[C@@H](O)[C@H](O[C@@H]3[C@@H](O)[C@H](N)C[C@H](N)[C@H]3O[C@H]3O[C@H](CN)[C@@H](O)[C@H](O)[C@H]3N)O[C@@H]2CO)[C@H](N)[C@@H](O)[C@@H]1O` [neomycin, Neomycin B, reference compound]?
pIC50 [1]: 5.37; pIC50 ([2]; cytosolic, Table 3 (Example 1), read-out: IC50 Cyt): 4.46; pIC50 ([2]; cytosolic, Table 3 (Example 2), read-out: IC50 Cyt): 4.46; pIC50 ([2]; cytosolic, Table 4 (Example 3), read-out: IC50 Cyt): 4.46; pIC50 ([2]; ribosomes with a human cytosolic decoding site, read-out: IC50 Cytosolic): 4.46; MIC AG031 P. aer. APH(3′)-II ([3]; clinical isolate AG031, APH(3′)-II): 8 µg/mL (≈ 13 µM); MIC AG032 P. aer. APH(3′)-II ([3]; clinical isolate AG032, APH(3′)-II): 8 µg/mL (≈ 13 µM); MIC50 P aeruginosa AG31 ([3]; strain AG31, Table 1 (Example 2)): 32 µg/mL (≈ 52.1 µM); MIC50 P aeruginosa AG32 ([3]; strain AG32, Table 1 (Example 2)): 32 to 64 µg/mL; MIC50 P aeruginosa AG33 ([3]; strain AG33, Table 1 (Example 2)): >128 µg/mL; MIC50 P aeruginosa AG86 ([3]; strain AG86, Table 1 (Example 2)): >128 µg/mL; MIC AG220 P. aerugin ([3]; strain AG220 Pseudomonas aeruginosa ATCC27853): 32 µg/mL (≈ 52.1 µM); MIC M. smegmatis SZ380 WT ([4]; SZ380 WT, Table 5 (Example 3)): 0.5 µg/mL (≈ 0.813 µM); MIC SZ380 M. smegmatis ([4]; strain SZ380 Mycobacterium smegmatis): 0.5 µg/mL (≈ 0.813 µM); MIC AG290 E. cloacae [5]: 1 µg/mL (≈ 1.63 µM); pIC50 [6]: 4.31; pIC50 [7]: 6.40; MIC E coli AG006 Wild type ([8]; AG006 Wild type, Table 2 (Example 3)): 0.25 to 0.5 µg/mL; MIC E coli AG104 Wild type ([8]; AG104 Wild type, Table 2 (Example 3)): 0.5 to 1 µg/mL; MIC50 E coli BM13 (AG06) wt ([8]; BM13 (AG06) wt, Table 2A (Example 2)): 1 µg/mL (≈ 1.63 µM); MIC pH430 WT ([8]; E. coli strain pH430, WT): 1 μg/ml; MIC WT ([8]; Table 3 (Example 1)): 1 µg/mL (≈ 1.63 µM); MIC WT ([8]; Table 3 (Example 2)): 1 µg/mL (≈ 1.63 µM); MIC E. coli WT ([8]; Table 4 (Example 3)): 1 µg/mL (≈ 1.63 µM); MIC E. coli WT ([8]; Table 5 (Example 3)): 0.5 to 1 µg/mL; MIC AG001 E. coli WT ([8]; clinical isolate AG001, WT): 1 µg/mL (≈ 1.63 µM); MIC E coli AG001 ([8]; clinical isolate AG001, Table 1 (Example 3)): 4 µg/mL (≈ 6.51 µM); MIC E coli AG003 ([8]; clinical isolate AG003, Table 1 (Example 3)): 1 µg/mL (≈ 1.63 µM); MIC AG055 E. coli WT ([8]; clinical isolate AG055, WT): 1 µg/mL (≈ 1.63 µM); MIC E coli AG055 ([8]; clinical isolate AG055, Table 1 (Example 3)): 1 µg/mL (≈ 1.63 µM); MIC AG160 E. coli WT ([8]; clinical isolate AG160 WT, Table 2 (Example 4)): 1 µg/mL (≈ 1.63 µM); MIC pH430 E. coli WT ([8]; engineered strain pH430 WT, Table 2 (Example 4)): 1 μg/ml; MIC50 E coli pH430 WT ([8]; pH430 WT, Table 2B (Example 2)): 1 μg/ml; MIC50 E coli AG01 ([8]; strain AG01, Table 1 (Example 2)): 2 µg/mL (≈ 3.25 µM); MIC50 E coli AG03 ([8]; strain AG03, Table 1 (Example 2)): 1 µg/mL (≈ 1.63 µM); MIC50 E coli AG55 ([8]; strain AG55, Table 1 (Example 2)): 1 to 2 µg/mL; MIC AG212 E. coli ([8]; strain AG212 E. coli (ATCC25922)): 0.5 to 1 µg/mL; MIC M. abscessus ATCC 19977 WT ([9]; ATCC 19977 WT, Table 5 (Example 3)): 16 µg/mL (≈ 26 µM); MIC M. abscessus ATCC ([9]; ATCC, Table 4 (Example 3)): 16 µg/mL (≈ 26 µM); MIC M. abscessus Clin. Isol. ([9]; Clin. Isol., Table 4 (Example 3)): 16 µg/mL (≈ 26 µM); MIC M. abscessus clinical isolate ([9]; clinical isolate, Table 5 (Example 3)): 16 µg/mL (≈ 26 µM); MIC M. abscessus engineered Δeis2 ([9]; engineered Δeis2, Table 5 (Example 3)): 4 µg/mL (≈ 6.51 µM); MIC AG215 K. pneumon [10]: 0.5 µg/mL (≈ 0.813 µM); MIC AG038 MRSA ([11]; clinical isolate AG038): 0.25 µg/mL (≈ 0.407 µM); MIC MRSA AG038 ([11]; clinical isolate AG038, Table 1 (Example 3)): 0.25 µg/mL (≈ 0.407 µM); MIC AG039 MRSA AAC(6′)-I ANT(4′)-I ([11]; clinical isolate AG039, AAC(6′)-I ANT(4′)-I): 128 µg/mL (≈ 208 µM); MIC MRSA AG039 ([11]; clinical isolate AG039, Table 1 (Example 3)): 128 µg/mL (≈ 208 µM); MIC AG042 MRSA AAC(6′)-I ANT(4′)-I APH(2′) ([11]; clinical isolate AG042, AAC(6′)-I ANT(4′)-I APH(2′)): 128 µg/mL (≈ 208 µM); MIC MRSA AG042 ([11]; clinical isolate AG042, Table 1 (Example 3)): 128 µg/mL (≈ 208 µM); MIC MRSA AG044 ([11]; clinical isolate AG044, Table 1 (Example 3)): 0.5 to 1 µg/mL; MIC50 MRSA AG38 ([11]; strain AG38, Table 1 (Example 2)): 1 to 2 µg/mL; MIC50 MRSA AG39 ([11]; strain AG39, Table 1 (Example 2)): 128 µg/mL (≈ 208 µM); MIC50 MRSA AG42 ([11]; strain AG42, Table 1 (Example 2)): 128 µg/mL (≈ 208 µM); MIC50 MRSA AG44 ([11]; strain AG44, Table 1 (Example 2)): 0.5 to 1 µg/mL; Disk diffusion 25 nmol N. gonorrhoeae [12]: <8 mm
